Measurements taken from US8110543B2, “Anti-invasive and anti-angiogenic compositions” (Angstrom Pharmaceuticals, Inc., priority 1997, dated 2012).

What was measured:
[1] = system: 3LL cells; assay: Tumor angiogenesis (microvessel density) in 3LL model; assay type: in vivo, Mice; conditions: 100-250 mg/kg/day; compared to controls
Protocol: Angiogenesis is measured by determining microvessel density using immunostaining for CD31 (also known as platelet-endothelial cell adhesion molecule or PECAM). Results are reported as the average microvessel density of 5 fields each from 5 different sections (Penfold et al., 1996). Typically, the whole tumor is excised, sectioned and the sections examined histologically for microvessel density using appropriate stains or labels for other markers.
Angiogenesis induced by tumor growth and metastasis in vivo is examined in the models systems described above. Mice injected with 3LL cells are treated either with peptide or with vehicle and are sacrificed at various time points. Angiogenesis is assessed by determining microvessel density (MVD) using an antibody specific for microvascular endothelium or other markers of growing blood vessels, such as PECAM (CD31). Such an antibody is employed in conventional immunohistological methods to immunostain tissue sections as described by Penfold et al., supra. A large number of such antibodies is commercially available, for example the JC70 mAb. The MVD are correlated with other measures of tumor behavior including lymph node status and primary tumor size and rate of growth. In humans as reported by Penfold et al., supra, tumor MVD correlates with lymph node metastasis and is independent of tumor size, growth rate or type of histological differentiation.
The compounds are given i.v., i.p., or by osmotic minipump Typical dosages are 100-250 mg/kg/day. At various time points, two animals are sacrificed, and the tumor tissue and surrounding tissue is prepared for histological examination. Results are reported as the average microvessel density of 5 fields each from 5 different sections. The following seven compounds are tested: Ac-[…]-Am (SEQ ID NO:2), Ac-[…]-Am (SEQ ID NO: 6) (disubstitution variant at positions 3 and 4), Ac-[…]-Am (SEQ ID NO: 7) (disubstitution variant at positions 7 and 8), Ac-[…]-Am (SEQ ID NO: 8) (substitution variant at position 1), Ac-PSSPPEE-Am (SEQ ID NO: 4) (deletion variant, position 1 of SEQ ID NO:2 deleted), Ac-KPSSPPE-Am (SEQ ID NO: 5) (deletion variant, position 8 of SEQ ID NO:2 deleted), and Ac-[…]-Am (SEQ ID NO:1).

[2] = target: uPA (Homo sapiens, UniProt P00749); assay: uPA activity / activation of plasminogen; assay type: biochemical

Ac-KPSSPPEE-NH2 [Å6, CH3CO-Lys-Pro-Ser-Ser-Pro-Pro-Glu-Glu-NH2]
number of microvessels in the region of the primary tumor [1]: significant reduction
effect on the activity of uPA directly [2]: did not affect
inhibition of the activation of plasminogen [2]: no effect
